From patent US20230167450A1, “BIFUNCTIONAL MOLECULES AND METHODS OF USING THEREOF” (Flagship Pioneering, Inc., priority 2020, published 2023)

System: mRNA encoding Renilla Luciferase protein
Experiment: Renilla luciferase activity (protein expression) in HEK293T cells co-transfected with pRL-TK target plasmid and BTK-fused effector plasmid
Assay type: cell-based, human
Settings: ASO conjugated at the 5′ end with Ibrutinib-MPEA; effector fused to BTK
Source text: The Ibrutinib-conjugated ASOs described in Example 4a (shown in Table 5 below) were co-transfected into human cells along with the plasmid expressing the target Renilla luciferase described in example 4b, as well as the plasmid expressing BTK-YTHDF1 effector protein described example 4c.
A 96-well cell culture plate with 70% confluent HEK293T cells was transfected with the 50 nanograms of the target luciferase plasmid and 100 nanograms of the plasmid expressing the BTK-YTHDF1 effector, using Lipofectamine 2000 (Thermo Fisher Scientific) according to the manufacturer's instruction. After 24 hours, targeting (test) and non-targeting (control) ASOi were transfected separately into the cells at the final concentration of 100 nM using Lipofectamine RNaiMax (Thermo Fisher Scientific) according to the manufacturer's instruction. For each condition, cells were allowed to recover and are subsequently analyzed 48 hours after the transfection of ASOis.
Pierce Renilla Luciferase Glow Assay Kit (Thermo Fisher Scientific) was used for measuring the luciferase activity corresponding to protein expression in each condition, according to manufacturer's instruction. The luminescence was measured and quantified by a GloMax plate reader and its integrated software (Promega Corp.), according to manufacturer's instruction (FIG. 4). […]

Molecule | Effector(s) increasing translation
ASO3: Rluc RNA-targeting ASO, TTCTGCAGCTTAAGTTCGA, 2′-MOE phosphorothioate; tested conjugated at 5′ end with Ibrutinib-MPEA (*/i2MOErT/*/i2MOErT/*/i2MOErC/*/i2MOErT/*/i2MOErG/*/i2MOErC/*/i2MOErA/*/i2MOErG/*/i2MOErC/*/i2MOErT/*/i2MOErT/*/i2MOErA/*/i2MOErA/*/i2MOErG/*/i2MOErT/*/i2MOErT/*/i2MOErC/*/i2MOErG/*/32MOErA/; as printed in the source, key not given here) | YTHDF1, EIF4E
ASO1: Non-targeting (scramble) control ASO, …, 2′-MOE phosphorothioate; tested conjugated at 5′ end with Ibrutinib-MPEA (nucleic acid, Cy5-labeled IVT RNA) CCUUGAAAUCCAUGACGCAGGGAGAAUUGCGUCAUUUAAAGCCUAGUUAACGCAUUUACUAAACGCAGACGAAAAUGGAAAGAUUAAUUGGGAGUGGUAGGAUGAAACAAUUUGGAGAAGAUAGAAGUUUGAAGUGGAAAACUGGAAGACAGAAGUACGGGAAGGCGAA | YTHDF1, EIF4E
